Where two headings read alike, the source gives them in different places.

Consider 2 compounds from patent US20250353828A1, “SUBSTITUTED BIARYL ENDOCHIN-LIKE QUINOLONES WITH ENHANCED ANTIPARASITIC ACTIVITY” (Oregon Health & Science University, priority 2022, published 2025).

Data set [1] deals with P. falciparum Dd2 strain (multidrug resistant). As to the kind of experiment: microbe, parasite or virus in culture. In kind it is cell-based, Plasmodium falciparum. As to conditions: read-out: P. falciparum IC50 values, nM Dd2; Dd2 strain; 72 h incubation; averages of quadruplicate with (95% confidence intervals). As to the method: (§1) Rationale for Synthesis of a 3-Biaryl Version of ELQ-300. […] All of this information is stored in a database with information relating to chemical structure, physical chemical properties, cross resistance patterns, mammalian cell cytotoxicity, enzyme inhibitor profiles, and synthesis details. […] We employed the SyBr Green assay and the plates were incubated for 72 hours before harvesting^18, 19. […] Stock solutions were freshly prepared in DMSO.
(§2) Plasmodium falciparum Culture. Laboratory strains of P. falciparum were cultured in human erythrocytes by standard methods. The parasites were grown in culture medium with fresh human erythrocytes maintained at 2% hematocrit at 37° C. in low-oxygen conditions (5% O2, 5% CO2, […] balance N2). […] Cultures were maintained at less than 10% parasitemia by transfer of infected cells to fresh erythrocytes and culture medium every 3 or 4 days.
(§3) In vitro drug susceptibility assays. SYBR green I assay. In vitro antiplasmodial activity was assessed using a published SYBR Green I fluorescence-based method. The drugs were added to 96-well plates using 2-fold serial dilutions in complete medium. […] Asynchronous P. falciparum parasites were diluted with uninfected erythrocytes and added to the wells to give a final culture volume of 100 μl at 2% hematocrit and 0.2% parasitemia. […] The parasites were then lysed by adding 100 μl of SYBR green I lysis buffer containing 0.2 μl/ml SYBR green I dye (10,000×) in 20 mM Tris (pH 7.5), 5 mM EDTA, 0.008% (wt/vol) saponin, and 0.08% (vol/vol) Triton X-100. The plates were incubated at room temperature for an hour in the dark. […] If the IC50 value fell outside of the initial tested range then the range was adjusted up or down and the assay was repeated.

The target of data set [2] is T1, P. falciparum cytochrome bc1 complex (Plasmodium falciparum, UniProt Q02768).
T1 construct: endogenous in cells
T1 sequence (Q02768 1-376): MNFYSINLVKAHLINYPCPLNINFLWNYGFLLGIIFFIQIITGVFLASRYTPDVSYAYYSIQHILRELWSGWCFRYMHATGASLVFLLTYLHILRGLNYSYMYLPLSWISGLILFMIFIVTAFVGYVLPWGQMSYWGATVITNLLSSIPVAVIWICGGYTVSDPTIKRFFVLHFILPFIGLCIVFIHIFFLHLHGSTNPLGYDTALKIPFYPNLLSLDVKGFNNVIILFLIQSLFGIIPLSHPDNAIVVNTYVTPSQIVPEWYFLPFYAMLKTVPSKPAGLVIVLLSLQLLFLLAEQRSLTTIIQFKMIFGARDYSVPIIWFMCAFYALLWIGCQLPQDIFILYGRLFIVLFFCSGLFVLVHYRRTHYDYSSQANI
Particulars: data taken from Nilsen et al., 2013 (a) or Frueh et al., 2017 (b); cited from earlier work.

For data set [3], the system named is P. falciparum cytochrome bc1 complex. As to the kind of experiment: biochemical. Particulars: based on enzyme inhibitory activity. The text has this:
(§4) Isolation of Plasmodium falciparum Mitochondria and Ubiquinol-Cytochrome c Oxidoreductase Assay.

Data set [4] deals with P. falciparum D6 strain (drug sensitive). As to the kind of experiment: In vitro antiplasmodial activity, SYBR Green I assay, D6 strain. It is filed as cell-based, Plasmodium falciparum. Particulars: Plasmodium falciparum; D6 strain; 72 h incubation; averages of quadruplicate with (95% confidence intervals); read-out: P. falciparum IC50 values, nM D6. As to the method:
as §1, §2, §3

Data set [5] in a line: HepG2 cytotoxicity, TiterGlo ATP luminescence, galactose medium. In kind it is cell-based, human. As to conditions: human. Here is the method:
[…]. Of course, enhanced potency is desirable only if unaccompanied by enhanced toxicity. […] […]. The incubation period for these experiments was 48 hours.

Data set [6] relates to P. falciparum Tm90-C2B (atovaquone-resistant clinical isolate). Description: In vitro antiplasmodial activity, SYBR Green I assay, Tm90-C2B. In kind it is cell-based. Particulars: Plasmodium falciparum; Tm90-C2B strain; 72 h incubation; averages of quadruplicate with (95% confidence intervals); read-out: P. falciparum IC50 values, nM Tm90-C2B. Here is the method: as §1, §2, §3

Data set [7] concerns the target T2, human liver cytochrome bc1 complex (Homo sapiens, UniProt P00156).
T2 construct: human host cytochrome bc1 complex isolated from human liver tissue; from tissue; host or cells: human liver tissue
As to conditions: data taken from Nilsen et al., 2013 (a) or Frueh et al., 2017 (b); cited from earlier work.

Data set [8] relates to P. falciparum D1 clone (ELQ-300 resistant). Description: microbe, parasite or virus in culture. It is filed as cell-based. As to conditions: Plasmodium falciparum, 72 h, read-out: P. falciparum IC50 values, nM D1.
The subject of data set [9] is P. yoelii (Kenya Strain) blood stage infection in mice. As to the kind of experiment: 4-day Peters test against murine malaria. It is filed as in vivo. As to the method:
On Day 5 a drop of blood was taken from the tail and a blood smear was prepared, fixed with methanol, and stained with Giemsa. The operator then examined the stained smear microscopically to determine percent parasitemia. Dosages of 0.0025, 0.005, 0.01, 0.03, 0.1, 0.3, 1.0 and 10 mg/kg/day were used for the experiment. […] In this model animals were inoculated exactly as for the 4-day test on Day 0 however drug was administered only on Day 1 while the operator made smears on Day 5 and again weekly thereafter for animals that remained aparasitemic. Animals that remained aparasitemic out to […] were scored as cures.
(§5) In Vivo Efficacy against Murine Malaria. The P. yoelii 4-day test monitors suppression of patent infection in female CF1 mice. The test began with the inoculation (iv) of parasitized erythrocytes (3.5×10^4/P. yoelli) (from a donor animal) on the first day of the experiment (D0). […] Initially the 3-biaryl-ELQs were tested at doses of 0.0025, 0.005, 0.01, 0.03, 0.1, 0.3, 1.0 and 10 mg/kg/day, including a vehicle-only (PEG400) control. After completion of drug treatment, a blood sample was collected (by pricking the tail vein) for determination of parasite burden beginning on the day after the final dose (D5). Percent parasitemia is assessed by direct microscopic analysis of Giemsa-stained blood smears. […] Animals with observable parasitemia following the experiment were euthanized; animals cleared of parasites from the bloodstream were observed daily with assessment of parasitemia performed weekly until day 30, at which point the animal(s) were scored as cured of infection. […] Non-linear regression analysis is used for objective determination of ED50's and ED90's from the accumulated data as well as the Non-Recrudescence Dose (NRD). The 4-day test protocol was reviewed and approved by the local IACUC board at the Portland VA Medical Center. Experiments were performed with 4 mice per group to ensure statistical accuracy.

Data set [10] relates to P. yoelii blood stage infection in mice. Description: In vivo single-dose cure against murine malaria. As to conditions: for Single dose cure: lowest single dose that cures all 4 mice, P. yoelii, prodrugs dosed on molar equivalency to parent drug. Here is the method:
Animals that remained aparasitemic out to […] were scored as cures.
In Vivo Single-Dose Efficacy against Murine Malaria. The effectiveness of selected 3-biarylELQs and prodrugs was assessed vs. the blood stage infection for single dose cures. Mice are infected iv with 3.5×10^4 P. yoelii infected RBCs as described for the 4-day test above. Drug administration occurred on the day after inoculation (Day 1). Test agents were dissolved in PEG-400 and administered ig once. On the 5th day blood films were prepared and % parasitemia was assessed. Animals remaining parasite-free for 30 days after drug administration were considered cured. The initial dosing range was: 0.5, 1, 2.5, 5, 10 mg/kg, including a control. Experiments were performed with 4 mice per group to ensure statistical accuracy. The reported parameter for these studies is the lowest single dose that provides a cure to all 4 animals in the group.

For data set [11], the target named is T1, P. falciparum cytochrome bc1 complex. Description: biochemical. As to conditions: cytochrome bc1 activity from P. falciparum mitochondria.
Source text: as §4

Data set [12] concerns the target T2, human liver cytochrome bc1 complex. Description: Inhibition of human cytochrome bc1 complex. In kind it is biochemical. Particulars: complex isolated from human liver tissue. The text has this: Human Cytochrome bc1 Assays.
Data set [13] is described as follows: Appearance, behaviour and weight observations in the in vivo efficacy-testing model. Particulars: mice, at any dose level of the efficacy tests. As to the method:
as §5

[14] abbreviates: P. yoelii in mice, oral gavage in PEG400 on Days 1-4, prodrugs dosed on molar equivalency to parent drug.

As for `COc1cc2[nH]c(C)c(-c3ccc(Oc4ccc(OC(F)(F)F)cc4)cc3)c(=O)c2cc1Cl` [ELQ-300, reference compound], the half-maximal inhibitory concentration (IC50) in data set [1] is 4.2 nM; in [2] it was 0.56 nM; in data set [4], 3.3 nM; in data set [6], 2.5 nM; in data set [7], > 10000 nM; in data set [8], 168 nM. In addition, in [3], the “Selectivity Index Human/Pf cyt. bc1” value is given as ≥18,000. The EC50 at 48 h in data set [5] is > 10000 nM. Further, in [9] (setting [14]), the “4-day Peters Test Results ED90” value came out at 0.06 mg/kg/day. For the same compound, in data set [9] (setting [14]), the “4-day Peters Test Results NRD (non-recrudescence dose)” value amounted to 1.0 mg/kg/day. The Single dose cure in [10] (dose on Day 1) is >25 mg/kg/day.

Turning to `CCOC(=O)OCOc1c(-c2ccc(-c3ccc(OC(F)(F)F)cc3)cc2)c(C)nc2cc(OC)c(Cl)cc12` [ELQ-598, ((6-chloro-7-methoxy-2-methyl-3-(4′-(trifluoromethoxy)-[1,1′-biphenyl]-4-yl)quinolin-4-yl)oxy)methyl ethyl carbonate], the “P. falciparum cytochrome bc1, nM” value in data set [11] was “only feeble inhibitory activity”. For the same compound, the IC50 in data set [4] was 1.5 nM. In data set [12], the IC50 is > 10000 nM. The concentration giving a half-maximal response (EC50) at 48 h in data set [5] is > 10000 nM. The IC50 in data set [6] was 0.8 nM. The “ED50, ED90 and NRD lower than for ELQ-300 and ELQ-331” value in data set [9] (4-day test) was “roughly 3 fold”. Also, in data set [9] (setting [14]), the “4-day Peters Test Results ED50” value was 0.006 mg/kg/day, the “4-day Peters Test Results ED90” value amounted to 0.01 mg/kg/day and the “4-day Peters Test Results NRD (non-recrudescence dose)” value amounted to 0.1 mg/kg/day. For the same compound, the “appearance, behavioral or weight changes after dosing” value in data set [13] is listed as “no appearance, behavioral or weight changes”. Also, the “lowest fully protective single dose cure” value in data set [10] (P. yoelii in mice, dose on Day 1, lowest dose tested to date, as parent drug equivalent) was 0.5 mg/kg. For the same compound, the “more effective as a single dose cure compared directly to ELQ-331” value in data set [10] (blood stage malaria infections in mice) is listed as “at least 6 times”. For the same compound, in data set [10] (dose on Day 1), the Single dose cure is ≤0.5 mg/kg/day. Moreover, in data set [10] (same result expressed as mass of prodrug), the “lowest fully protective single dose cure, mg/kg of prodrug” value is recorded as 0.6 mg/kg.
